# Source: PMC5984089, “FBXW7 regulates DISC1 stability via the ubiquitin-proteosome system” (Molecular Psychiatry, 2017)
# Residues, ends and D or L forms follow the SMILES beside them. *: point of attachment. Cbz = O=C(OCc1ccccc1)*
# Tests used:
# [1] = tested on: DISC1, neural progenitors derived from patients carrying a 4-bp deletion in the DISC1 gene; test: DISC1 protein level in patient iPS-derived neural progenitors (DISC1 frameshift, 4-bp deletion), western blot; format: cell-based, human
# Text: (§1) All iPS derived neural progenitors were provided by Pfizer Neuroscience (Cambridge, MA, USA). The iPS cell lines D2 and D3 and family control cell line C1 were generated using a non-integrated approach by Dr Hongjun Song at Johns Hopkins University and cultured as described previously.[8] The Detroit iPS cell line was generated by Dr S. Engle at Pfizer Neuroscience. Detroit 551 fibroblasts were obtained from ATCC (CCL-110) and maintained in Knockout DMEM (Life Technologies 10829-018), 15% FBS (Life Technologies), 1x Non-essential amino acids (Life Technologies 11140-050), 2 mM L-glutamine (Life Technologies 25030-081), 1x Gentamicin (Life Technologies 15710-072), 0.1 mM β-mercaptoethanol (Sigma M-7522). The cells were reprogrammed with individual lentiviruses expressing c-MYC, KLF4, SOX2, OCT3/4, NANOG, and LIN28. One colony, Detroit 551-3, with ES-like morphology, high expression of pluripotency markers (for example, OCT3/4, TRA-1-60, TRA-1-81, SSEA4), a normal karyotype, […] the ability to form all three germ layers in a teratoma assay was used in all subsequent experiments. […]
# [2] = tested on: DISC1, neural progenitors derived from control subjects; test: DISC1 protein level in control iPS-derived neural progenitors, western blot; format: cell-based, human; conditions: MG132 10 µM, day 18, up to 3 hours, n=2, western blot
# Text: as §1
structure (smiles),measurement,setting,value
CC(C)C[C@@H](C=O)NC(=O)[C@H](CC(C)C)NC(=O)[C@H](CC(C)C)NC(=O)OCc1ccccc1 [MG132] (Cbz-Leu-Leu-Leu-aldehyde),"DISC1 protein level in NPs from D2-1 (patient) iPS cells, proteasomal inhibition","[1]; MG132 10 µM, day 18, up to 3 hours, n=2, western blot",stabilization of DISC1 protein levels within first 30 min up to 3 hours
same,DISC1 level in patient-derived NP cells after MG132,"[1]; MG132, Supplementary Figure 10D",could be enhanced by MG132 treatment
same,"DISC1 protein level in NPs from Detroit (control) iPS cells, proteasomal inhibition",[2],stabilization of DISC1 protein levels within first 30 min up to 3 hours
